According to US5596002A, “Method of treating chloroquine-resistant malaria with aminoquinoline derivatives” (Hoffmann-La Roche Inc., priority 1993, dated 1997):
Converted amounts (≈) assume the structure as drawn.

Legend:
Assay type in all cases: cell-based
[1] = tested on: Plasmodium falciparum, chloroquine-sensitive strain NF54; experiment: activity against P. falciparum in vitro, strain NF54; conditions: Plasmodium falciparum; chloroquine-sensitive strain NF54; 48 h-72 h; read-out: IC50 (50% growth inhibition)
Protocol: (§1) Test method for the determination of the activity against P. falciparum in vitro
(§2) The preparations of the present invention were tested on intraerythrocytary stages of P. falciparum from asynchronous cultures according to the method of Desjardin et al. (Desjardins, R. E. et al: Quantitative assessment of antimalarial activity in vitro by a semiautomated microdilution technique. Antimicrob. Agents Chemother. 16, 710-718, (1979)).
(§3) The culture medium consisted of RPMI 1640 with the addition of 25 mM HEPES, 25 mM NaHCO3, […] neomycin and 10% human serum (A^+). Human-A^+ erythrocytes were used as the P. falciparum host cells. The parasites were maintained at 37° C. in an atmosphere of 3% O2, 4% CO2, 93% N2 and at 95% relative humidity.
(§4) In order to determine the activity, the preparations were dissolved in DMSO, pre-diluted in the culture medium to a suitable starting concentration and subsequently titrated-out into microtitre plates in the 2nd stage over 6-7 steps. After the addition of the parasite culture (0.7% parasitemia in 2.5% erythrocyte suspension), the test plates were incubated under the conditions given above for 48 h-72 h. The parasite growth in the different preparation concentrations was determined using [G-^3 H]-hypoxanthin incorporation compared to untreated control cultures on the same test plates. The 50% growth inhibition (IC50) was calculated according to logit regression analysis from the resulting dosage-activity curve.
(§5) The preparations were tested on at least one chloroquine-resistant and one chloroquine-sensitive P. falciparum strain. Additional sensitive and resistant strains were also included for further characterization.
(§6) Table 1 below contains the IC50 values measured in vitro for the growth inhibition of chloroquine-sensitive and chloroquine-resistant strains of the human pathogenic Plasmodium falciparum.

[2] = tested on: Plasmodium falciparum, chloroquine-sensitive strain Ro7 3; experiment: activity against P. falciparum in vitro, strain Ro7 3; conditions: chloroquine-sensitive strain Ro7 3, 48 h-72 h, read-out: IC50 (50% growth inhibition)
Protocol: as §1, §2, §3, §4, §5, §6

[3] = tested on: Plasmodium falciparum, chloroquine-sensitive strain RFMEF3; experiment: activity against P. falciparum in vitro, strain RFMEF3; conditions: chloroquine-sensitive strain RFMEF3, 48 h-72 h, read-out: IC50 (50% growth inhibition)
Protocol: as §1, §2, §3, §4, §5, §6

[4] = tested on: Plasmodium falciparum, chloroquine-sensitive strain HB3; experiment: activity against P. falciparum in vitro, strain HB3; conditions: chloroquine-sensitive strain HB3, 48 h-72 h, read-out: IC50 (50% growth inhibition)
Protocol: as §1, §2, §3, §4, §5, §6

[5] = tested on: Plasmodium falciparum, chloroquine-resistant strain W2; experiment: activity against P. falciparum in vitro, strain W2; conditions: chloroquine-resistant strain W2, 48 h-72 h, read-out: IC50 (50% growth inhibition)
Protocol: as §1, §2, §3, §4, §5, §6

[6] = tested on: Plasmodium falciparum, chloroquine-resistant strain K1; experiment: activity against P. falciparum in vitro, strain K1; conditions: Plasmodium falciparum; chloroquine-resistant strain K1; 48 h-72 h; read-out: IC50 (50% growth inhibition)
Protocol: as §1, §2, §3, §4, §5, §6

[7] = tested on: Plasmodium falciparum, chloroquine-resistant strain Indo; experiment: activity against P. falciparum in vitro, strain Indo; conditions: chloroquine-resistant strain Indo, 48 h-72 h, read-out: IC50 (50% growth inhibition)
Protocol: as §1, §2, §3, §4, §5, §6

[8] = tested on: Plasmodium falciparum, chloroquine-resistant strain RFCR3; experiment: activity against P. falciparum in vitro, strain RFCR3; conditions: chloroquine-resistant strain RFCR3, 48 h-72 h, read-out: IC50 (50% growth inhibition)
Protocol: as §1, §2, §3, §4, §5, §6

[9] = tested on: Plasmodium falciparum, chloroquine-resistant strain 7G8; experiment: activity against P. falciparum in vitro, strain 7G8; conditions: chloroquine-resistant strain 7G8, 48 h-72 h, read-out: IC50 (50% growth inhibition)
Protocol: as §1, §2, §3, §4, §5, §6

[10] = tested on: Plasmodium falciparum, chloroquine-resistant strain ItG2 F6; experiment: activity against P. falciparum in vitro, strain ItG2 F6; conditions: chloroquine-resistant strain ItG2 F6, 48 h-72 h, read-out: IC50 (50% growth inhibition)
Protocol: as §1, §2, §3, §4, §5, §6

[11] = tested on: Plasmodium falciparum, chloroquine-resistant strain W2 Mef; experiment: activity against P. falciparum in vitro, strain W2 Mef; conditions: 48 h-72 h, read-out: IC50 (50% growth inhibition)
Protocol: as §1, §2, §3, §4, §5, §6

[12] = tested on: Plasmodium falciparum, chloroquine-sensitive strain FCH5C2; experiment: activity against P. falciparum in vitro, strain FCH5C2; conditions: chloroquine-sensitive strain FCH5C2, 48 h-72 h, read-out: IC50 (50% growth inhibition)
Protocol: as §1, §2, §3, §4, §5, §6

Compound: CC(CN1CCCC1)Nc1ccnc2cc(Cl)ccc12 (racemic) [Example 3, (RS)-(7-Chloro-quinolin-4-yl)-(1-methyl-2-pyrrolidin-1-yl-ethyl)-amine]
- IC50 [1]: 7 ng/mL (≈ 0.0242 µM)
- IC50 [2]: 4 ng/mL (≈ 0.0138 µM)
- IC50 [3]: 7 ng/mL (≈ 0.0242 µM)
- IC50 [4]: 5 ng/mL (≈ 0.0173 µM)
- IC50 [5]: 7 ng/mL (≈ 0.0242 µM)
- IC50 [6]: 12 ng/mL (≈ 0.0414 µM)
- IC50 [7]: 6 ng/mL (≈ 0.0207 µM)
- IC50 [8]: 8 ng/mL (≈ 0.0276 µM)
- IC50 [9]: 7 ng/mL (≈ 0.0242 µM)
- IC50 [10]: 5 ng/mL (≈ 0.0173 µM)
- IC50 [11]: 11 ng/mL (≈ 0.038 µM)
- IC50 [12]: 7 ng/mL (≈ 0.0242 µM)

Compound: CCC1CCCCN1CCNc1ccnc2cc(Cl)ccc12 (racemic) [Example 27, (RS)-(7-Chloro-quinolin-4-yl)-[2-(2-ethyl-piperidin-1-yl)-ethyl]amine]
- IC50 [1]: 8 ng/mL (≈ 0.0252 µM)
- IC50 [2]: 3 ng/mL (≈ 0.00944 µM)
- IC50 [3]: 7 ng/mL (≈ 0.022 µM)
- IC50 [4]: 9 ng/mL (≈ 0.0283 µM)
- IC50 [5]: 19 ng/mL (≈ 0.0598 µM)
- IC50 [6]: 18 ng/mL (≈ 0.0566 µM)
- IC50 [7]: 9 ng/mL (≈ 0.0283 µM)
- IC50 [8]: 15 ng/mL (≈ 0.0472 µM)
- IC50 [9]: 7 ng/mL (≈ 0.022 µM)
- IC50 [10]: 7 ng/mL (≈ 0.022 µM)
- IC50 [11]: 14 ng/mL (≈ 0.044 µM)
- IC50 [12]: 10 ng/mL (≈ 0.0315 µM)

Compound: CC1CCC(C)N1CCNc1ccnc2cc(Cl)ccc12 (stereo not drawn) [Example 30, (7-Chloro-quinolin-4-yl)-[2-(2,5-dimethyl-pyrrolidin-1-yl)-ethyl]-amine]
- IC50 [1]: 7 ng/mL (≈ 0.023 µM)
- IC50 [2]: 11 ng/mL (≈ 0.0362 µM)
- IC50 [3]: 8 ng/mL (≈ 0.0263 µM)
- IC50 [4]: 10 ng/mL (≈ 0.0329 µM)
- IC50 [5]: 15 ng/mL (≈ 0.0494 µM)
- IC50 [6]: 14 ng/mL (≈ 0.0461 µM)
- IC50 [7]: 7 ng/mL (≈ 0.023 µM)
- IC50 [8]: 16 ng/mL (≈ 0.0527 µM)
- IC50 [9]: 15 ng/mL (≈ 0.0494 µM)
- IC50 [10]: 7 ng/mL (≈ 0.023 µM)
- IC50 [11]: 8 ng/mL (≈ 0.0263 µM)
- IC50 [12]: 9 ng/mL (≈ 0.0296 µM)

Compound: CC1CCN(CCNc2ccnc3cc(Cl)ccc23)CC1 [Example 24, (7-Chloro-quinolin-4-yl)-[2-(4-methyl-piperidin-1-yl)-ethyl]-amine]
- IC50 [1]: 7 ng/mL (≈ 0.023 µM)
- IC50 [2]: 4 ng/mL (≈ 0.0132 µM)
- IC50 [3]: 7 ng/mL (≈ 0.023 µM)
- IC50 [4]: 7 ng/mL (≈ 0.023 µM)
- IC50 [5]: 15 ng/mL (≈ 0.0494 µM)
- IC50 [6]: 15 ng/mL (≈ 0.0494 µM)
- IC50 [7]: 8 ng/mL (≈ 0.0263 µM)
- IC50 [8]: 9 ng/mL (≈ 0.0296 µM)
- IC50 [9]: 7 ng/mL (≈ 0.023 µM)
- IC50 [10]: 6 ng/mL (≈ 0.0197 µM)
- IC50 [11]: 9 ng/mL (≈ 0.0296 µM)
- IC50 [12]: 7 ng/mL (≈ 0.023 µM)

Compound: CC(C)(CN1CCCC1)Nc1ccnc2cc(Cl)ccc12 [Example 13, (7-Chloro-quinolin-4-yl)-(1,1-dimethyl-2-pyrrolidin-1-yl-ethyl)-amine]
- IC50 [1]: 30 ng/mL (≈ 0.0987 µM)
- IC50 [2]: 30 ng/mL (≈ 0.0987 µM)
- IC50 [3]: 27 ng/mL (≈ 0.0889 µM)
- IC50 [4]: 38 ng/mL (≈ 0.125 µM)
- IC50 [5]: 34 ng/mL (≈ 0.112 µM)
- IC50 [6]: 47 ng/mL (≈ 0.155 µM)
- IC50 [7]: 40 ng/mL (≈ 0.132 µM)
- IC50 [8]: 58 ng/mL (≈ 0.191 µM)
- IC50 [9]: 39 ng/mL (≈ 0.128 µM)
- IC50 [10]: 25 ng/mL (≈ 0.0823 µM)
- IC50 [11]: 41 ng/mL (≈ 0.135 µM)
- IC50 [12]: 28 ng/mL (≈ 0.0922 µM)

Compound: Clc1ccc2c(NCCN3CCC4CCCCC43)ccnc2c1 (stereo not drawn) [Example 31]
- IC50 [1]: 5 ng/mL (≈ 0.0152 µM)
- IC50 [2]: 5 ng/mL (≈ 0.0152 µM)
- IC50 [3]: 6 ng/mL (≈ 0.0182 µM)
- IC50 [4]: 5 ng/mL (≈ 0.0152 µM)
- IC50 [5]: 14 ng/mL (≈ 0.0424 µM)
- IC50 [6]: 11 ng/mL (≈ 0.0333 µM)
- IC50 [7]: 7 ng/mL (≈ 0.0212 µM)
- IC50 [8]: 14 ng/mL (≈ 0.0424 µM)
- IC50 [9]: 9 ng/mL (≈ 0.0273 µM)
- IC50 [10]: 7 ng/mL (≈ 0.0212 µM)
- IC50 [11]: 7 ng/mL (≈ 0.0212 µM)
- IC50 [12]: 5 ng/mL (≈ 0.0152 µM)

Compound: C[C@@H]1CCC[C@H](C)N1CCNc1ccnc2cc(Cl)ccc12 [Example 28, (2R,6S)-(7-Chloro-quinolin-4-yl)-[2-(2,6-dimethyl-piperidin-1-yl)-ethyl]-amine]
- IC50 [1]: 7 ng/mL (≈ 0.022 µM)
- IC50 [2]: 5 ng/mL (≈ 0.0157 µM)
- IC50 [3]: 9 ng/mL (≈ 0.0283 µM)
- IC50 [4]: 11 ng/mL (≈ 0.0346 µM)
- IC50 [5]: 18 ng/mL (≈ 0.0566 µM)
- IC50 [6]: 16 ng/mL (≈ 0.0503 µM)
- IC50 [7]: 9 ng/mL (≈ 0.0283 µM)
- IC50 [8]: 16 ng/mL (≈ 0.0503 µM)
- IC50 [9]: 9 ng/mL (≈ 0.0283 µM)
- IC50 [10]: 6 ng/mL (≈ 0.0189 µM)
- IC50 [11]: 15 ng/mL (≈ 0.0472 µM)
- IC50 [12]: 14 ng/mL (≈ 0.044 µM)
